Measurements reported in US12049452B2, “Olaparib hydroxybenzoic acid cocrystals and their pharmaceutical use” (NUFORMIX TECHNOLOGIES LIMITED, priority 2021, dated 2024).

Experiments:
[1] = Solid-state stability study under accelerated storage conditions (XRPD form change, HPLC purity); type: physicochemical; conditions: 7 days; for Purity: HPLC
Method: Bruker D8 X-Ray Powder Diffraction (XRPD) Characterization: X-ray powder diffraction patterns for the samples were acquired on a Bruker D8 diffractometer using Cu Ka radiation (40 kV, 40 mA) and a θ-2θ goniometer fitted with a Ge monochromator. The incident beam passes through a 2.0 mm divergence slit followed by a 0.2 mm anti-scatter slit and knife edge. The diffracted beam passes through an 8.0 mm receiving slit with 2.5° Soller slits followed by the Lynxeye Detector. The software used for data collection and analysis was Diffrac Plus XRD Commander and Diffrac Plus EVA respectively. Samples were run under ambient conditions over an angular range of 2° to 42° 2θ (using a step size of 0.05° 2θ and a step time of 0.5 seconds) as flat plate specimens using powder as received. The sample was prepared on a polished, zero-background (510) silicon wafer by gently pressing onto the flat surface or packed into a cut cavity. The sample was rotated in its own plane. Small D8 disc recess holders were used to prepare samples.
Chemical Purity Determination by HPLC: Purity analysis was performed on an Agilent HP1100/Infinity II 1260 series system equipped with a diode array detector and using Open LAB software.
A study was carried out to examine the physical stability of the olaparib hydroxybenzoic acid cocrystals with respect to solid form conversion or signs of decomposition over time under accelerated storage conditions. The 1:1 olaparib gentisic acid cocrystal, 2:1 olaparib gentisic acid cocrystal, 1:1 olaparib 2,4-dihydroxybenzoic acid cocrystal, 2:1 2,4-dihydroxybenzoic acid cocrystal, and the 2:1 olaparib 4-hydroxybenzoic acid cocrystal were separately stored at 40° C./75% relative humidity and 25° C./97% relative humidity for 7 days. After this time, all samples remained as white solids with no signs of deliquescence. Each sample was analysed by XRPD to observe any potential form changes and by HPLC to determine purity so as to determine any signs of decomposition.

[2] = Gravimetric Vapour Sorption (GVS) moisture sorption isotherm; type: physicochemical; conditions: for XRPD analysis of the sample post GVS (cocrystal structure): after GVS isotherm
Method: Gravimetric Vapour Sorption (GVS): Sorption isotherms were obtained using a SMS DVS Intrinsic moisture sorption analyzer, controlled by DVS Intrinsic Control software. The sample temperature was maintained at 25° C. by the instrument controls. The humidity was controlled by mixing streams of dry and wet nitrogen, with a total flow rate of 200 ml/min. The relative humidity was measured by a calibrated Rotronic probe (dynamic range of 1.0-100% RH), located near the sample. The weight change, (mass relaxation) of the sample as a function of % RH was constantly monitored by a microbalance (accuracy ±0.005 mg).
Typically, 5-30 mg of sample was placed in a tared mesh stainless steel basket under ambient conditions. The sample was loaded and unloaded at 40% RH and 25° C. (typical room conditions). A moisture sorption isotherm was performed as outlined in Table 1 (2 scans per complete cycle). The standard isotherm was performed at 25° C. at 10% RH intervals over a 0-90% RH range. Typically, a double cycle (4 scans) was carried out. Data analysis was carried out within Microsoft Excel using the DVS Analysis Suite. The sample was recovered after completion of the isotherm and re-analyzed by XRPD.

[3] = low solubility and low permeability; cited from earlier work
[4] = Dissolution study in simulated intestinal fluid (FaSSIF V2), Pion inForm instrument; type: physicochemical; conditions: FaSSIF V2 pH 6.5, 37° C.
From the text: As described in US 2018/0113216, the oral bioavailability of olaparib is dependent on both the dissolution rate and overall solubility of the drug in the gastro-intestinal (GI) tract. US 2018/0113216 describes how olaparib has a propensity for efflux by P-gp at concentrations limiting its permeability and thus limiting its absorption from the GI tract. This efflux ratio is lowered as the concentration of drug in solution increases. Thus, to minimize this efflux issue and achieve optimal absorption and bioavailability it is essential to find a form of olaparib that has as high a dissolution rate as possible in the GI tract and that also maintains a high level of solubility over a sufficient period of time to allow the drug to be absorbed into the blood stream. […] The dissolution study was carried out using 50 mL simulated intestinal fluid (FaSSIF V2) at pH 6.5 (37° C.) using a quantity of each olaparib form equivalent to 25 mg olaparib. […] Detection and quantification of olaparib was performed by in-situ UV-spectroscopy using a fibre-optic probe, allowing instantaneous data collection from the point of sample introduction. UV absorption data was converted to mg/mL (±0.2 mg/mL) using a previously determined pH dependent molar extinction coefficients to quantitate the amount of dissolved drug.

[5] = across the 0-90% relative humidity range at 25° C. under nitrogen

| XRPD Analysis ([1]; 25° C./97% RH) | Purity ([1]; 25° C./97% RH) [%] | XRPD Analysis ([1]; 40° C./75 RH) | Purity ([1]; 40° C./75 RH) [%] | reversibly absorbed moisture (GVS) [2, 5] [% w/w] | XRPD analysis of the sample post GVS (cocrystal structure) [2] | reversibly absorbed moisture (GVS) ([2]; between 0 and 5% RH, 25° C.) [% w/w] | rate of dissolution after particle size reduction ([4]; compared with olaparib form A as supplied) | SMILES | BCS class [3] | amount of olaparib dissolved after particle size reduction ([4]; any one timepoint over a 30-minute time period, compared with form A as supplied) |
| --- | --- | --- | --- | --- | --- | --- | --- | --- | --- | --- |
| No change | 99.79 | No change | 99.70 | – | – | – | – | O=C(O)c1cc(O)ccc1O.O=C(c1cc(Cc2n[nH]c(=O)c3ccccc23)ccc1F)N1CCN(C(=O)C2CC2)CC1 [1:1 olaparib gentisic acid cocrystal] | – | – |
| No change | 99.22 | No change | 99.43 | – | – | – | – | O=C(O)c1ccc(O)cc1O.O=C(c1cc(Cc2n[nH]c(=O)c3ccccc23)ccc1F)N1CCN(C(=O)C2CC2)CC1 | – | – |
| – | – | – | – | – | – | – | lower rate of dissolution | O=C(c1cc(Cc2n[nH]c(=O)c3ccccc23)ccc1F)N1CCN(C(=O)C2CC2)CC1 [milled olaparib form A] | – | overall decrease in the amount of olaparib dissolved |

The next lines start with the molecule.

| SMILES | XRPD Analysis ([1]; 25° C./97% RH) | Purity ([1]; 25° C./97% RH) [%] | XRPD Analysis ([1]; 40° C./75 RH) | Purity ([1]; 40° C./75 RH) [%] | reversibly absorbed moisture (GVS) [2, 5] [% w/w] | XRPD analysis of the sample post GVS (cocrystal structure) [2] | reversibly absorbed moisture (GVS) ([2]; between 0 and 5% RH, 25° C.) [% w/w] | rate of dissolution after particle size reduction ([4]; compared with olaparib form A as supplied) | BCS class [3] | amount of olaparib dissolved after particle size reduction ([4]; any one timepoint over a 30-minute time period, compared with form A as supplied) |
| --- | --- | --- | --- | --- | --- | --- | --- | --- | --- | --- |
| O=C(O)c1ccc(O)cc1.O=C(c1cc(Cc2n[nH]c(=O)c3ccccc23)ccc1F)N1CCN(C(=O)C2CC2)CC1.O=C(c1cc(Cc2n[nH]c(=O)c3ccccc23)ccc1F)N1CCN(C(=O)C2CC2)CC1 | No change | 99.69 | No change | 99.70 | 3.4 | unchanged | 1.5 | – | – | – |
| O=C(O)c1cc(O)ccc1O.O=C(c1cc(Cc2n[nH]c(=O)c3ccccc23)ccc1F)N1CCN(C(=O)C2CC2)CC1.O=C(c1cc(Cc2n[nH]c(=O)c3ccccc23)ccc1F)N1CCN(C(=O)C2CC2)CC1 [2:1 olaparib gentisic acid cocrystal] | No change | 99.64 | No change | 99.59 | 3.4 | unchanged | 1.6 | – | – | – |
| O=C(c1cc(Cc2n[nH]c(=O)c3ccccc23)ccc1F)N1CCN(C(=O)C2CC2)CC1 [olaparib, 4-[(3-{[4-(cyclopropylcarbonyl)piperazin-1-yl]carbonyl}-4-fluorophenyl)methyl]phthalazin-1(2H)-one] | – | – | – | – | – | – | – | – | class 4 | – |
| O=C(O)c1ccc(O)cc1O.O=C(c1cc(Cc2n[nH]c(=O)c3ccccc23)ccc1F)N1CCN(C(=O)C2CC2)CC1.O=C(c1cc(Cc2n[nH]c(=O)c3ccccc23)ccc1F)N1CCN(C(=O)C2CC2)CC1 | No change | 99.64 | No change | 99.45 | 4.5 | unchanged | 2.5 | – | – | – |
